For experiment [1], the system named is Leukotriene B4 production in whole human blood. Briefly: In vitro human whole blood Leukotriene B4 inhibition. Type of experiment: cell-based. The conditions noted are these: A23187 stimulated, read-out: IC50 (concentration producing 50% inhibition of LTB4 production). The procedure:
IN VITRO HUMAN WHOLE BLOOD LEUKOTRIENE B4 INHIBITION
The test method described below measures the ability of compounds to inhibit the production of Leukotriene B4 in whole human blood.
Whole human blood is collected by venipuncture into a 60 cc syringe containing 100 units of heparin.
compounds are disolved in dimethyl sulfoxide. Compounds are tested at concentrations of 100, 33, 11, 3.7, 1.2 and 0.41 μM. Each concentration is tested in duplicate.
Aliquots (1 μL) of compound solution are added to 1 mL polyethylene tubes followed by the addition of 500 μL portion of heparinized blood. The tubes are mixed thoroughly then allowed to preincubate at ambient temperature for 15 minutes. A 25 μL portion of 1 mM Calcium Ionophore A23187 in dimethyl sulfoxide/Tris buffer is added to the tubes. The tubes are mixed thoroughly then incubated at 37° C. for 30 minutes.
The tubes are centrifuged at 2000 rpm for 10 minutes. 100 μL portions of plasma are transferred to 1 mL polyethylene tubes containing 400 μL portions of methanol. The tubes are vortexed then frozen at -20° C. overnight.
The tubes are centrifuged for 10 minutes then 100 μL portions of methanol supernatant are transferred to a 96 well microtiter plate. 10 μL portions are transferred from this plate to a 96 well assay plate. Methanol dilutions of LTB4 standard curve are added to the assay plate. 10 μL portions of blank methanol/plasma supernatant are added to each standard curve well. The assay plate is vacuum dried at ambient temperature. The radioimmunoassay buffer is added, the plate is bath-sonicated for 5 minutes then assayed according to the manufacturer's instructions (Advanced Magnetics; Cambridge, Mass.). Inhibition of LTB4 production is calculated as the ratio of the amount of LTB4 formed in the presence (LTB4 +cpd) and absence (LTB4 no cpd) of compound according the equation below. [formula] IC50 values (concentration of compound producing a 50% inhibition of LTB4 production) are calculated by linear regression analysis of percentage inhibition versus log compound concentration plots.

For another experiment, the target named is T1, 5-lipoxygenase (Homo sapiens, UniProt P09917).
T1 construct: endogenous in cells; host or cells: leukocytes from whole human blood (EDTA, dextran sedimentation, hypotonic lysis)
T1 sequence (P09917 1-674): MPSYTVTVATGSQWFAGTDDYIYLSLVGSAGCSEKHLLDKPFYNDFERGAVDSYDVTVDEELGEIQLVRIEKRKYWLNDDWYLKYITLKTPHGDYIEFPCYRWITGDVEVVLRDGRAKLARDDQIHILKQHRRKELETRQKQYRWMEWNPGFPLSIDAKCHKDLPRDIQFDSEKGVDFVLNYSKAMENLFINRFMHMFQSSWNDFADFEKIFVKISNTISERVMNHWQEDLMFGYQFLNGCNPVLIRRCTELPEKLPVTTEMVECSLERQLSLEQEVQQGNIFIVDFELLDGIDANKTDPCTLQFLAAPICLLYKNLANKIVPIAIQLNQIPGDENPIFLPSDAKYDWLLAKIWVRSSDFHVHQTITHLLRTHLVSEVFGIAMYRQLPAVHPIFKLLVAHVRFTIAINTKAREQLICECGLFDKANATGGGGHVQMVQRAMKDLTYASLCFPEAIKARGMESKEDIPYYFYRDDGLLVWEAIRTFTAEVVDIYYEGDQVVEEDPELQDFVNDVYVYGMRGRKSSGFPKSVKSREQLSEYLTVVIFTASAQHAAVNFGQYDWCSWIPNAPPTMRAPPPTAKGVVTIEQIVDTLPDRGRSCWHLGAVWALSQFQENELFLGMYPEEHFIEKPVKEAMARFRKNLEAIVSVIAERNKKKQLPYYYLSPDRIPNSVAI
The experiment is described as follows: 5-Lipoxygenase inhibition in human leukocytes (LTC4 by radioimmunoassay). It counts as cell-based. The following applies: A23187 stimulated, LTC4 readout, read-out: IC50 (concentration producing 50% leukotriene biosynthesis inhibition). As to the method:
5-LIPOXYGENASE INHIBITION IN HUMAN LEUKOCYTES
The test method described below measures the ability of compounds of the invention to inhibit 5-lipoxygenase activity in human leukocytes.
Whole human blood is collected by venipuncture into EDTA (1.4 mL of 0.25M per 60 mL of whole blood). The red blood cells are sedimented with a 6% dextran/0.9% sodium chloride solution at a ratio of 25 mL whole blood to 15 mL dextran solution. The blood/dextran combination is mixed by inversion and the red blood cells are allowed to settle out for 45 minutes at ambient temperature. The plasma/dextran supernatant is removed then centrifuged at ambient temperature at 3000 rpm for 10 minutes. The plasma/dextran supernatant is removed and the cells are resuspended in 10 mL of the plasma/dextran solution. The cell suspension is combined with 20 mL of water, mixed for 1.5 minutes then immediately combined with 10 mL of 3.6% sodium chloride, mixed and centrifuged at ambient temperature at 3000 rpm for 10 minutes. The pellet is washed with 40 mL of Tris buffer (5.55 mM dextrose, 15.36 mM Tris base, 136.9 mM sodium chloride with pH 7.3-7.4) then centrifuged at 3000 rpm for 10 minutes. The pellet is then resuspended into Tris buffer containing 1 mM calcium chloride to provide approximately 1.0×10^7 cells/mL.
Compounds are dissolved in dimethyl sulfoxide. Compounds are tested at concentrations of 100, 33, 11, 3.7, 1.2 and 0.41 μM. Each concentration is tested in duplicate.
A 15 μL portion of Tris buffer containing 1 mM calcium chloride is added to each well of a 96 well microtiter plate. A 1 μL portion of drug solution or vehicle (dimethyl sulfoxide) is added to each well followed by the addition of a 75 μL portion of the cell suspension. The plates are gently mixed then allowed to stand at ambient temperature for 10 minutes. A 10 μL portion of 30 μM A23187 Calcium Ionophore (prepared by dissolving the ionophore in DMSO and then diluting 1:80 into the Tris buffer) is added to each well except the wells that contain the blanks. The blank wells measure the level of LTC4 production in the absence of A23187. The plates are gently mixed then incubated at 37° C. for 10 minutes.
Following incubation the plates are centrifuged at 2000 rpm for 1.5 minutes and the supernatant is removed as quickly as possible to stop the reaction. The supernatants are frozen at -20° C. until they are assayed.
The supernatants are assayed for the presence of Leukotriene C4 by radioimmunoassay which is performed according to the manufacturer's instructions (Advanced Magnetics; Cambridge, Mass.). Inhibition of leukotriene biosynthesis is calculated as the ratio of the amount of LTC4 formed in the presence (LTC4 +cpd) and absence (LTC4 no cpd) of compound according to the following equation. [formula] IC50 values (concentrations of compound producing 50% leukotriene biosynthesis inhibition) are calculated by linear regression analysis of percentage inhibition versus log compound concentration plots.

The structures appear in SMILES notation.

Experimental findings from patent US6121323A, “Bishydroxyureas” (3M Innovative Properties Company, priority 1997, dated 2000) are described below.

As for `CN(O)C(=O)Nc1ccc(Oc2ccc(NC(=O)N(C)O)cc2)cc1` [Example 6, 4,4'-Oxybis(1-hydroxy-1-methyl-3-phenylurea)], the IC50 in experiment [1] worked out at 500 nM; on 5-lipoxygenase it was 216 nM.
On to `CN(O)C(=O)Nc1cccc2c(NC(=O)N(C)O)cccc12` [Example 8, 1,1'-(1,5-Naphthalene)bis(3-hydroxy-3-methylurea)], for which the IC50 in experiment [1] amounted to 700 nM; at 5-lipoxygenase it was 5600 nM.
As to `O=C(NCCCCCCNC(=O)N(O)Cc1ccccc1)N(O)Cc1ccccc1` [Example 10, 1,1'-Hexamethylenebis(3-hydroxy-3-benzylurea)], the IC50 in experiment [1] is 2000 nM; at 5-lipoxygenase it was 100 nM.
Taken in the same sequence, the figures for `CN(O)C(=O)Nc1cccc(NC(=O)N(C)O)c1` [Example 7, 1,1'-(m-Phenylene)bis(3-hydroxy-3-methylurea)] were 550 nM and 5900 nM.
For `CN(O)C(=O)Nc1ccc(C(c2ccc(NC(=O)N(C)O)cc2)(C(F)(F)F)C(F)(F)F)cc1` [Example 5, 4,4'-(2,2-Hexafluoropropane)bis(1-hydroxy-1-methyl-3-phenylurea)], in that order: 700 nM and 24 nM.
Taken in the same sequence, the figures for `COc1cc(-c2ccc(NC(=O)N(C)O)c(OC)c2)ccc1NC(=O)N(C)O` [Example 11] were 350 nM and 100 nM.
With `CN(O)C(=O)N[C@H]1CC[C@H](NC(=O)N(C)O)CC1` [Example 9, trans-1,4-Cyclohexanebis(3-hydroxy-3-methylurea)], the IC50 in experiment [1] was 17200 nM; on 5-lipoxygenase it was above 10000 nM.
Regarding `CCc1cc(Cc2cc(CC)c(NC(=O)N(C)O)c(CC)c2)cc(CC)c1NC(=O)N(C)O` [Example 4, 4,4'-Methylenebis(1-hydroxy-1-methyl-3-(2,6-diethylphenyl)urea)], the IC50 worked out at 8200 nM in experiment [1] and 4220 nM on 5-lipoxygenase.
